The text below walks through data of patent US9371365B2, “Modified compstatin with peptide backbone and C-terminal modifications” (The Trustees of the University of Pennsylvania, priority 2009, dated 2016).

Usually IC50 stands for the concentration that gives 50% inhibition.

In test [1] the test system is classical pathway of complement. Briefly: Inhibition of classical pathway complement activation, ELISA in human serum. The test is classed as biochemical. Particulars: for inhibition of complement activation, result in words: ELISA, N-methylation scan; for IC50: read-out: IC50; for rP: relative potency compared to peptide 14. The procedure:
The ability of the compstatin analogs to inhibit the activation of the classical pathway of complement was assessed by ELISA (Mallik et al., 2005, J Med Chem 48:274-86). In brief, complement was activated in human serum using an antigen-antibody complex in the presence or absence of compstatin analogs, and the deposition of C3 fragments on the plate surface was detected using an HRP-conjugated polyclonal anti-C3 antibody. […] The percent inhibition was plotted against the peptide concentration, and the resulting data set was fitted to the logistic dose-response function using Origin 7.0 software. IC50 values were obtained from the fitted parameters that produced the lowest χ^2 value. Each analog was assayed at least three to seven times.
The ability of the compstatin analogs to inhibit the activation of the classical pathway of complement was assessed by ELISA as described in Example 1. Each conjugate was assayed at least three times.
(In an ELISA, binding on a coated surface is turned into a signal by an enzyme label.)

In test [2] the target is T1, C3b (Homo sapiens, UniProt P01024).
T1 construct: biotin (chemical biotinylation of C3b)
T1 sequence (P01024 23-667 limits assumed): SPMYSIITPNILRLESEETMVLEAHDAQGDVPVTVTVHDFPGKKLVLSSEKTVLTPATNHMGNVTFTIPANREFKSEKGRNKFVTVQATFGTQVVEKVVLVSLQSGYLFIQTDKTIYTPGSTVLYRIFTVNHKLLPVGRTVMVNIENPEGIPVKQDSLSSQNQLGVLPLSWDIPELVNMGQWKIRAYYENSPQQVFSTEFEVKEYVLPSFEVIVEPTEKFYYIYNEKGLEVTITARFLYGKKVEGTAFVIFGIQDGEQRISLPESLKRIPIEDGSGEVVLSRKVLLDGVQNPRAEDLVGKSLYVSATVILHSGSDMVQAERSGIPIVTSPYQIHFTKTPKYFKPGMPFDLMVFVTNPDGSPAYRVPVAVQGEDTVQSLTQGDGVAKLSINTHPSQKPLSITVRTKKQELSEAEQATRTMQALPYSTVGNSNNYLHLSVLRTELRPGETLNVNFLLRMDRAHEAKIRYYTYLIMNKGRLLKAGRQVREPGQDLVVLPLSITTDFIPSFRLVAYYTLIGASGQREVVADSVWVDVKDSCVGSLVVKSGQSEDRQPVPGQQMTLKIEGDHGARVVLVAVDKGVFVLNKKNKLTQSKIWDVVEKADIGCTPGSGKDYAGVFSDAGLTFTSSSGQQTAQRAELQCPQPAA
T1 sequence (P01024 749-1663 limits assumed): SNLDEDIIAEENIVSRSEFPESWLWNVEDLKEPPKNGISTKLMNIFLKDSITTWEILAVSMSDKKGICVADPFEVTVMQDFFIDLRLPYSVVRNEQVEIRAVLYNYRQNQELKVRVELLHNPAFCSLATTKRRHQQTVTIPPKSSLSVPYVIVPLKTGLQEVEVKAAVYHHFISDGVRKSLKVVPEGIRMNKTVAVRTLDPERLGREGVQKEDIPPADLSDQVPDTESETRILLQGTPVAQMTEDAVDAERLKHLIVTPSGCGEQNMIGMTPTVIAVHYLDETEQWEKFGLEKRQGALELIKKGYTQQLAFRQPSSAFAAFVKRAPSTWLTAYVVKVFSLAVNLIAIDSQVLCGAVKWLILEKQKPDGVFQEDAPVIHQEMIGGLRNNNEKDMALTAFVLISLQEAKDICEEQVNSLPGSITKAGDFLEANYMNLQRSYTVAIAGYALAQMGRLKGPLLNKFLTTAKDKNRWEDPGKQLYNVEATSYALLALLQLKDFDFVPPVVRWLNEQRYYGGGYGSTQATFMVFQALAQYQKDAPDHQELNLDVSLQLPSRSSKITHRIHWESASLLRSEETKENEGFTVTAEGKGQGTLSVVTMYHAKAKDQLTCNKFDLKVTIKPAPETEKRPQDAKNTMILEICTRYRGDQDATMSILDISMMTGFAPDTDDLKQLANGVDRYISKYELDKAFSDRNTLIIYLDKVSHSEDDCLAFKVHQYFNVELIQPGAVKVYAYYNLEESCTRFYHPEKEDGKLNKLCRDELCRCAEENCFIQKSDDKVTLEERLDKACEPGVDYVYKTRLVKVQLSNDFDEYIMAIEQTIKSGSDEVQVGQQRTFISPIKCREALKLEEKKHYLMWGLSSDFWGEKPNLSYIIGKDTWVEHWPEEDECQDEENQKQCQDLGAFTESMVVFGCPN
Briefly: SPR analysis of binding kinetics to immobilized C3b. Particulars: for kd: 25° C., PBS-T; for kon: pH 7.4, read-out: ka; for rKD SPR / rka / rkd: relative to peptide 14. The procedure:
(§1) The kinetics of the interaction between C3b and each compstatin analog was analyzed by SPR on a Biacore 3000 instrument (GE Healthcare Corp., Piscataway, N.J.) at 25° C. using PBS-T (10 mM sodium phosphate, 150 mM NaCl, 0.005% Tween-20, pH 7.4) as the running buffer, as described above. In brief, biotinylated C3b (30 μg/mL) was immobilized on a streptavidin-coated sensor chip, and a two-fold serial dilution series (1 μM-500 pM) of each analog was injected for 2 min at 30 μl/min, with a dissociation phase of 5-10 min. Peptide [Trp(Me)^4]-Ac-compstatin was included in each experimental series as an internal control and reference. Data analysis was performed using Scrubber (BioLogic Software, Campbell, Australia). The signals from an untreated flow cell and an ensemble of buffer blank injections were subtracted to correct for buffer effects and injection artifacts. Processed biosensor data were globally fitted to a 1:1 Langmuir binding model, and the equilibrium dissociation constant (KD) was calculated from the equation KD=kd/ka. Peptide solutions were injected in duplicate in every experiment, and each screening assay was performed at least twice.
as §1, with “in Example 1.” for “above.”, “μg/ml)” for “μg/mL)”, “Peptide [Trp(Me)^4]-Ac-compstatin was included in each experimental series as an internal control and reference.” left out

Test [3] addresses T2, C3 (Homo sapiens, UniProt P01024).
T2 construct: C3 was purified from fresh human plasma; from tissue; host or cells: fresh human plasma (blood bank of the Hospital of the University of Pennsylvania)
Briefly: ITC analysis of binding to C3. The conditions noted are these: for ΔH / −TΔS / ΔG: ITC; for ΔG: ΔG=ΔH−TΔS; for rKD ITC / ΔΔG / ΔΔH / −TΔΔS: relative to peptide 14. As to the method:
C3 was purified from fresh human plasma obtained from the blood bank of the Hospital of the University of Pennsylvania. In brief, the plasma was fractionated with 15% (w/v) PEG 3350, and the pellet was resuspended in 20 mM phosphate buffer, pH 7.8, and then subjected to anion-exchange chromatography on a DEAE-HR 40 column (50×5 cm; Millipore Inc., Billerica, Mass.) with the same buffer. Proteins were eluted with 6 L of a linear gradient (15-70%) of 20 mM phosphate buffer, pH 7.8, containing 500 mM NaCl. C3 was further purified on a size-exclusion Superdex 200 26/60 column (Amersham Biosciences) and a Mono S column (Amersham Biosciences) to separate C3 from C3(H2O).
All titrations were performed in PBS (10 mM phosphate buffer with 150 mM NaCl, pH 7.4) at 25° C. using multiple peptide injections of 2-7 μL each. The raw isotherms were corrected for the heats of dilution by subtracting the isotherms representing peptide injections into the buffer. The resulting isotherms were fitted to a single site of sites models using Origin 7.0 software, and the model that produced the lowest χ^2 value was deemed to be appropriate for the respective data set. The Gibbs free energy was calculated as ΔG=ΔH−TΔS. Each experiment was repeated at least twice.

Like-named read-outs stand apart in the source and are kept apart here. Bridge positions count the residues as written; N and C are the ends. Square brackets hold non-standard residues; d marks the D form. Peptide text beside a SMILES is read from it. Trp(1-Me) = Cn1cc(C[C@H](N)C(=O)O)c2ccccc21; NMeY = CN[C@@H](Cc1ccc(O)cc1)C(=O)O; NMeV = CN[C@H](C(=O)O)C(C)C; NMeA = CN[C@@H](C)C(=O)O; Nle = CCCC[C@H](N)C(=O)O; Sar = CNCC(=O)O

T2 sequence (P01024 23-667 limits assumed): as the sequence (P01024 23-667 limits assumed) above
T2 sequence (P01024 672-1663 limits assumed): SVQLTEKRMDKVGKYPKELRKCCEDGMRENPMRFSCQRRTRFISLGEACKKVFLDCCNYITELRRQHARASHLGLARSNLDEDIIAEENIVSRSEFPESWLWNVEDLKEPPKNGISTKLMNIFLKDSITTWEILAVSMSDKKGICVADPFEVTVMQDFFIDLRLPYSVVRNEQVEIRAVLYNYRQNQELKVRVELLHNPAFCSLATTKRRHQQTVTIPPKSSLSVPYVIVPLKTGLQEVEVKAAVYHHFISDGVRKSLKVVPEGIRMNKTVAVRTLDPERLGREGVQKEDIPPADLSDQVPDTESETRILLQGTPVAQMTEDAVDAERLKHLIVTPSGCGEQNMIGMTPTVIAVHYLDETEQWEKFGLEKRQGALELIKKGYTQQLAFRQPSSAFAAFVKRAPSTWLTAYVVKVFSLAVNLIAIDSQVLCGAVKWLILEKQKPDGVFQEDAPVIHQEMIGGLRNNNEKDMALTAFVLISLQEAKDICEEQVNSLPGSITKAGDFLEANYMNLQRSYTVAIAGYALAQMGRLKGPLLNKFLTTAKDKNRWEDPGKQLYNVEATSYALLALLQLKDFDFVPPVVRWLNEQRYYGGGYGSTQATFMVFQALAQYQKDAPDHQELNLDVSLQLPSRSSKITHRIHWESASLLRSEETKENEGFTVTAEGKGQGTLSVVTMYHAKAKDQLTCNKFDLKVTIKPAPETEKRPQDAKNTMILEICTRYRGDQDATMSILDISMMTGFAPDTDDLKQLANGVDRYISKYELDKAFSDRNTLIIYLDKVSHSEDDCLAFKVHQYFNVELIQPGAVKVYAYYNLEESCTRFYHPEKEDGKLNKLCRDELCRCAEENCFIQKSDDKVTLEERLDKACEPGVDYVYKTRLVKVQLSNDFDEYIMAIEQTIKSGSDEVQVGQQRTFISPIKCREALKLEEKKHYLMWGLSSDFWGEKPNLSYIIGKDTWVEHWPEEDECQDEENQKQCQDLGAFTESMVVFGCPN

Turning to “Ac-I[CV(NMe)YQDWGAHRC]T-NH2 (Ac-ICV[NMeY]QDWGAHRCT-NH2; disulfide 2-12; SMILES CC[C@H](C)[C@H](NC(C)=O)C(=O)N[C@H]1CSSC[C@@H](C(=O)N[C@H](C(N)=O)[C@@H](C)O)NC(=O)[C@H](CCCNC(=N)N)NC(=O)[C@H](Cc2c[nH]cn2)NC(=O)[C@H](C)NC(=O)CNC(=O)[C@H](Cc2c[nH]c3ccccc23)NC(=O)[C@H](CC(=O)O)NC(=O)[C@H](CCC(N)=O)NC(=O)[C@H](Cc2ccc(O)cc2)N(C)C(=O)[C@H](C(C)C)NC1=O) [Peptide 4]”, in test [1], the “inhibition of complement activation, result in words” value (from here on “inhibition of complement activation”) is “completely inactive”.
On to `CC[C@H](C)[C@H](NC(C)=O)C(=O)N[C@H]1CSSC[C@@H](C(=O)N[C@@H](CC(C)C)C(N)=O)NC(=O)[C@H](CCCNC(=N)N)NC(=O)[C@H](Cc2c[nH]cn2)NC(=O)[C@H](C)NC(=O)CN(C)C(=O)[C@H](Cc2c[nH]c3ccccc23)NC(=O)[C@H](CC(=O)O)NC(=O)[C@H](CCC(N)=O)NC(=O)[C@H](Cc2cn(C)c3ccccc23)NC(=O)[C@H](C(C)C)NC1=O` [Peptide 18, Ac−Ic[CV(^1−MeW)QDW(^N−MeG)AHRC]L-NH2] (Ac-ICV[Trp(1-Me)]QDW[Sar]AHRCL-NH2; disulfide 2-12), for which, in test [1] (Table 1-2), the IC50 stood at 108 nM. Besides, the IC50 in test [1] (exemplary analogs table) worked out at 108 nM. The rP in test [1] is 1.9. For the same compound, in test [2] (SPR), the kd was 6.0 10^−3/s. Also, in test [2], the kon was found to be 1.3e+06 M⁻¹ s⁻¹, the “rKD SPR” value is listed as 2.6, the rka is reported as 1.3 and the rkd is 1.9.
For “Ac-I[C(NMe)VYQDWGAHRC]T-NH2 (Ac-IC[NMeV]YQDWGAHRCT-NH2; disulfide 2-12; SMILES CC[C@H](C)[C@H](NC(C)=O)C(=O)N[C@H]1CSSC[C@@H](C(=O)N[C@H](C(N)=O)[C@@H](C)O)NC(=O)[C@H](CCCNC(=N)N)NC(=O)[C@H](Cc2c[nH]cn2)NC(=O)[C@H](C)NC(=O)CNC(=O)[C@H](Cc2c[nH]c3ccccc23)NC(=O)[C@H](CC(=O)O)NC(=O)[C@H](CCC(N)=O)NC(=O)[C@H](Cc2ccc(O)cc2)NC(=O)[C@H](C(C)C)N(C)C1=O) [Peptide 3]”, the “inhibition of complement activation” value in test [1] is “completely inactive”.
In the case of `CC[C@H](C)[C@H](NC(C)=O)C(=O)N[C@H]1CSSC[C@@H](C(=O)N(C)[C@H](C(N)=O)[C@@H](C)CC)NC(=O)[C@H](CCCNC(=N)N)NC(=O)[C@H](Cc2c[nH]cn2)NC(=O)[C@H](C)NC(=O)CN(C)C(=O)[C@H](Cc2c[nH]c3ccccc23)NC(=O)[C@H](CC(=O)O)NC(=O)[C@H](CCC(N)=O)NC(=O)[C@H](Cc2cn(C)c3ccccc23)NC(=O)[C@H](C(C)C)NC1=O` [Peptide 21, Ac−Ic[CV(^1−MeW)QDW(^N−MeG)AHRC](^N−MeI)-NH2], the IC50 in test [1] (Table 1-2) worked out at 62 nM. Also, in test [1] (exemplary analogs table), the IC50 came to 62 nM. In addition, the rP in test [1] is 3.3. In test [2] (SPR), the “fold stronger affinity than peptide 14” value is “more than 5 fold” and the kd is recorded as 3.5 10^−3/s. Also, in test [2], the kon amounted to 1.5e+06 M⁻¹ s⁻¹, the “rKD SPR” value amounted to 5.2, the rka was 1.5 and the rkd is given as 3.2. Moreover, in test [3], the ΔH is -17.1 kcal/mol, the “−TΔS” value is reported as 5.7 kcal/mol, the ΔG is -11.4 kcal/mol and the “rKD ITC” value turned out to be 3.3. Further, in test [3], the ΔΔG was -0.7 kcal/mol, the ΔΔH is reported as 0.5 kcal/mol and the “−TΔΔS” value is -1.3 kcal/mol.
On to `CCCC[C@H](NC(=O)[C@@H]1CSSC[C@H](NC(=O)[C@@H](NC(C)=O)[C@@H](C)CC)C(=O)N[C@@H](C(C)C)C(=O)N[C@@H](Cc2cn(C)c3ccccc23)C(=O)N[C@@H](CCC(N)=O)C(=O)N[C@@H](CC(=O)O)C(=O)N[C@@H](Cc2c[nH]c3ccccc23)C(=O)N(C)CC(=O)N[C@@H](C)C(=O)N[C@@H](Cc2c[nH]cn2)C(=O)N[C@@H](CCCNC(=N)N)C(=O)N1)C(N)=O` [Peptide 19, Ac−Ic[CV(^1−MeW)QDW(^N−MeG)AHRC](Nle)-NH2] (Ac-ICV[Trp(1-Me)]QDW[Sar]AHRC[Nle]-NH2; disulfide 2-12), for which the IC50 in test [1] (Table 1-2) worked out at 109 nM. The concentration for half-maximal inhibition (IC50) in test [1] (exemplary analogs table) stood at 109 nM. The compound further yielded a rP in test [1] of 1.9. In addition, in test [2] (SPR), the kd was 6.6 10^−3/s. Also, in test [2], the kon stood at 1.5e+06 M⁻¹ s⁻¹, the “rKD SPR” value is listed as 2.7, the rka came out at 1.5 and the rkd stood at 1.7.
For the compound `CC[C@H](C)[C@H](NC(=O)[C@@H]1CSSC[C@H](NC(=O)[C@@H](NC(C)=O)[C@@H](C)CC)C(=O)N[C@@H](C(C)C)C(=O)N[C@@H](Cc2cn(C)c3ccccc23)C(=O)N[C@@H](CCC(N)=O)C(=O)N[C@@H](CC(=O)O)C(=O)N[C@@H](Cc2c[nH]c3ccccc23)C(=O)NCC(=O)N[C@@H](C)C(=O)N[C@@H](Cc2c[nH]cn2)C(=O)N[C@@H](CCCNC(=N)N)C(=O)N1)C(N)=O` [Peptide 16], the kd in test [2] (SPR) is given as 11.0 10^−3/s. Also, in test [2], the kon was found to be 1e+06 M⁻¹ s⁻¹, the “rKD SPR” value was 1.1, the rka was 1.0 and the rkd came out at 1.0. Moreover, in test [3], the ΔH was -16.6 kcal/mol, the “−TΔS” value was 5.7 kcal/mol, the ΔG is -10.9 kcal/mol and the “rKD ITC” value is listed as 1.2. In addition, in test [3], the ΔΔG is -0.2 kcal/mol, the ΔΔH is given as 1.0 kcal/mol and the “−TΔΔS” value is -1.3 kcal/mol.
Regarding “Ac-I[CVYQDWG(NMe)AHRC]T-NH2 (Ac-ICVYQDWG[NMeA]HRCT-NH2; disulfide 2-12; SMILES CC[C@H](C)[C@H](NC(C)=O)C(=O)N[C@H]1CSSC[C@@H](C(=O)N[C@H](C(N)=O)[C@@H](C)O)NC(=O)[C@H](CCCNC(=N)N)NC(=O)[C@H](Cc2c[nH]cn2)NC(=O)[C@H](C)N(C)C(=O)CNC(=O)[C@H](Cc2c[nH]c3ccccc23)NC(=O)[C@H](CC(=O)O)NC(=O)[C@H](CCC(N)=O)NC(=O)[C@H](Cc2ccc(O)cc2)NC(=O)[C@H](C(C)C)NC1=O) [Peptide 9]”, the “inhibition of complement activation” value in test [1] is “completely inactive”.
